Here are results for 53 compounds from patent publication US20170273922A1, “UREA AND BIS-UREA BASED COMPOUNDS AND ANALOGUES THEREOF USEFUL IN THE TREATMENT OF ANDROGEN RECEPTOR MEDIATED DISEASES OR DISORDERS” (THE ROYAL INSTITUTION FOR THE ADVACEMENT OF LEARNING/MCGILL …, priority 2014, published 2017).

Series [1] is described as follows: MTT assay (cytotoxicity), LNCaP cells. Format: cell-based. To be noted: human, LNCaP cells. Here is the method:
(§1) MTT assays: LNCaP, 22Rv1, Du145, H1975, A549, MB231 and MCF-7 cells are maintained in RPMI 1640 supplemented with 10% FBS. Cells were seeded at a density of 6-7×10^3 cells per well in 96-well plates. After overnight incubation, cells in fresh RPMI 1640 supplemented with 10% FBS were exposed to DMSO vehicle control or test compounds at designated concentrations for 72 h. Viable cells were evaluated by MTT assays. Experiments were performed in triplicate and repeated at least twice.

Series [2] in a line: MTT assay (cytotoxicity), 22Rv1 cells. Format: cell-based. The settings on record: human, 22Rv1 cells. Here is the method: as §1

As usually defined, the IC50 is the concentration needed to halve the response being measured. Higher therefore signals a need for much substance. For the compound `COc1cccc(NC(=O)N/C=C/c2cccs2)c1` [Compound 425], the IC50 at 72 h in series [1] (72 h, Table 2.4) was over 20 µM. Still for that read-out and setting: the value for `O=C(N/C=C/c1cccs1)Nc1ccc2c(c1)OCO2` [Compound 426] was over 20 µM. `O=C(N/C=C/c1c[nH]cn1)Nc1ccc([N+](=O)[O-])c(C(F)(F)F)c1` [Compound 454]: in series [1] (72 h, Table 2.4), the IC50 at 72 h was over 10 µM. The same measure, in the same setting: as for `O=C(N/C=C/c1cccc(C(F)(F)F)c1)NCc1cccc(C(F)(F)F)c1` [Compound 460], the figure is 7.9 µM.

In the case of `O=C(N/C=C/c1cc(C(F)(F)F)cc(C(F)(F)F)c1)Nc1ccc2[nH]ccc2c1` [Compound 516], the concentration for half-maximal inhibition (IC50) at 72 h in series [2] (72 h, Table 2.3) was over 10 µM; in series [1] (72 h, Table 2.3), over 10 µM.

In series [1] (72 h treatment, Table 6.1), `O=C(Nc1cc(N2CCOCC2)cc(C(F)(F)F)c1)Nc1ccc(NC(=O)c2ccccc2F)c(C(F)(F)F)c1` [Compound 861] displayed an IC50 at 72 h of 9.7 µM.

In series [1] (72 h treatment, Table 6.1), `CN1CCN(c2cc(NC(=O)Nc3ccc(NC(=O)c4ccccc4F)c(C(F)(F)F)c3)cc(C(F)(F)F)c2)CC1` [Compound 862] gave an IC50 at 72 h of 3.4 µM.

As for `O=C(N/C=C/c1cccc(OC(F)(F)F)c1)Nc1ccncn1` [Compound 875], the IC50 at 72 h in series [2] (72 h treatment, Table 6.1) worked out at 8.8 µM; in series [1] (72 h treatment, Table 6.1), 4.6 µM.

With `O=C(Nc1cc(F)cc(C(F)(F)F)c1)Nc1ccc(NC(=O)c2ccccc2F)c(C(F)(F)F)c1` [Compound 878], the IC50 at 72 h was found to be 3.2 µM in series [2] (72 h treatment, Table 6.1) and 3.4 µM in series [1] (72 h treatment, Table 6.1). The corresponding values for `O=C(Nc1cccc(C(F)(F)F)c1)Nc1ccc(NC(=O)c2ccc(N3CCOCC3)cc2F)c(C(F)(F)F)c1` [Compound 879] are 6.8 µM and 6.3 µM. The corresponding values for `O=C(Nc1ccc(NC(=O)c2ccccc2F)c(C(F)(F)F)c1)Nc1ccccc1C(F)(F)F` [Compound 896] are 18.9 µM and 5.2 µM. The corresponding values for `O=C(Nc1ccc(C(F)(F)F)cc1)Nc1ccc(NC(=O)c2ccccc2F)c(C(F)(F)F)c1` [Compound 897] are 7 µM and 1.9 µM.

Regarding `O=C(Nc1cccc(C(F)(F)F)c1)Nc1ccc(NC(=O)Nc2ccc(F)cc2)c(C(F)(F)F)c1` [Compound 898], the IC50 at 72 h in series [2] (72 h treatment, Table 6.1) turned out to be 5.1 µM; in series [1] (72 h treatment, Table 6.1), 1.4 µM. The corresponding values for `O=C(Nc1cccc(C(F)(F)F)c1)Nc1ccc(NC(=O)c2c(F)cccc2F)c(C(F)(F)F)c1` [Compound 900] are 10.4 µM and over 10 µM. The corresponding values for `O=C(Nc1cccc(C(F)(F)F)c1)Nc1ccc(NC(=O)c2cc(F)ccc2F)c(C(F)(F)F)c1` [Compound 901] are 4.7 µM and 6.6 µM. The corresponding values for `O=C(Nc1cccc(C(F)(F)F)c1)Nc1ccc(NC(=O)c2ccc(F)cc2F)c(C(F)(F)F)c1` [Compound 902] are 4.5 µM and 7.4 µM. For the compound `O=C(Nc1cccc(C(F)(F)F)c1)Nc1ccc(NC(=O)c2cc(C(F)(F)F)ccc2F)c(C(F)(F)F)c1` [Compound 903], the IC50 at 72 h is 5 µM in series [2] (72 h treatment, Table 6.1) and 6.8 µM in series [1] (72 h treatment, Table 6.1). The corresponding values for `O=C(Nc1cccc(C(F)(F)F)c1)Nc1ccc(C(=O)Nc2ccc(F)cc2)c(C(F)(F)F)c1` [Compound 904] are 3.2 µM and 4.1 µM. As to `O=C(Nc1cccc(C(F)(F)F)c1)Nc1ccc(NC(=O)Nc2cccc(F)c2)c(C(F)(F)F)c1` [Compound 905], the IC50 at 72 h in series [2] (72 h treatment, Table 6.1) was determined as 11.4 µM; in series [1] (72 h treatment, Table 6.1), 5.5 µM.

With `O=C(Nc1cccc(C(F)(F)F)c1)Nc1ccc(NC(=O)c2cc(Cl)ccc2F)c(C(F)(F)F)c1` [Compound 907], the IC50 at 72 h was 4.2 µM in series [2] (72 h treatment, Table 6.1) and 4.2 µM in series [1] (72 h treatment, Table 6.1). `O=C(Nc1cccc(C(F)(F)F)c1)Nc1ccc(NC(=O)c2cccnc2F)c(C(F)(F)F)c1` [Compound 911]: the IC50 at 72 h in series [2] (72 h treatment, Table 6.1) worked out at 10 µM; in series [1] (72 h treatment, Table 6.1) it was 13.8 µM.

For the compound `O=C(Nc1cccc(C(F)F)c1)Nc1ccc(NC(=O)c2ccccc2F)c(C(F)(F)F)c1` [Compound 912], the IC50 at 72 h in series [2] (72 h treatment, Table 6.1) was determined as 16 µM; in series [1] (72 h treatment, Table 6.1), 11.6 µM. The corresponding values for `O=C(Nc1cccc(C(F)(F)F)c1)Nc1ccc(F)c(NC(=O)c2c(F)cccc2F)c1` [Compound 913] are 14.2 µM and 12.3 µM.

As for `O=C(Nc1cccc(NC(=O)c2cccc(F)c2)c1)Nc1cccc(C(F)(F)F)c1` [Compound 914], the IC50 at 72 h in series [2] (72 h treatment, Table 6.1) came out at 8.7 µM; in series [1] (72 h treatment, Table 6.1), 7.3 µM. The corresponding values for `O=C(Nc1cccc(NC(=O)c2ccc(F)cc2)c1)Nc1cccc(C(F)(F)F)c1` [Compound 915] are 10.6 µM and 9 µM.

In the case of `O=C(Nc1cccc(C(F)(F)F)c1)Nc1cc(NC(=O)c2ccccc2F)cc(C(F)(F)F)c1` [Compound 928], the IC50 at 72 h in series [2] (72 h treatment, Table 6.1) came to 2 µM; in series [1] (72 h treatment, Table 6.1), 2.4 µM. Take `O=C(Nc1cccc(C(F)(F)F)c1)Nc1ccc(F)c(NC(=O)c2cc(Cl)ccc2F)c1` [Compound 929]: the IC50 at 72 h in series [2] (72 h treatment, Table 6.1) was determined as 5.7 µM; in series [1] (72 h treatment, Table 6.1), 5.5 µM.

For `O=C(Nc1cccc(C(F)F)c1)Nc1ccc(NC(=O)c2cc(F)ccc2F)c(C(F)(F)F)c1` [Compound 930], the half-inhibitory concentration (IC50) at 72 h in series [2] (72 h treatment, Table 6.1) was found to be 5.6 µM; in series [1] (72 h treatment, Table 6.1) it was 8.2 µM. As for `N#Cc1ccc(NC(=O)NCC(=O)c2cccc(C(F)(F)F)c2)cc1C(F)(F)F` [Compound 937], inhibition in series [1] (72 h, Table 2.4) was half-maximal at 7.3 µM (IC50 at 72 h). Consider `O=C(Nc1cccc(C(F)F)c1)Nc1ccc(NC(=O)c2cc(C(F)(F)F)ccc2F)c(C(F)(F)F)c1` [Compound 941], for which the IC50 at 72 h in series [2] (72 h treatment, Table 6.1) was 3.6 µM; in series [1] (72 h treatment, Table 6.1), 5.4 µM. The corresponding values for `O=C(Nc1cccc(C(F)(F)F)c1)Nc1ccc(F)c(NC(=O)c2cc(F)ccc2F)c1` [Compound 942] are 7.1 µM and 5.7 µM. The corresponding values for `O=C(Nc1cccc(C(F)(F)F)c1)Nc1ccc(F)c(NC(=O)c2ccc(F)cc2F)c1` [Compound 943] are 13 µM and 6.3 µM. The corresponding values for `O=C(Nc1cccc(C(F)(F)F)c1)Nc1ccc(F)c(NC(=O)c2cc(C(F)(F)F)ccc2F)c1` [Compound 944] are 4.5 µM and 5.5 µM.

`O=C(Nc1cccc(C(F)F)c1)Nc1ccc(NC(=O)c2ccc(F)cc2F)c(C(F)(F)F)c1` [Compound 945]: the IC50 at 72 h in series [2] (72 h treatment, Table 6.1) is 7.1 µM; in series [1] (72 h treatment, Table 6.1) it was 7.3 µM.

For `O=C(Nc1cccc(C(F)(F)F)c1)Nc1ccc(F)c(NC(=O)c2cccc(F)c2)c1` [Compound 946], the IC50 at 72 h was determined as 9.5 µM in series [2] (72 h treatment, Table 6.1) and 8.4 µM in series [1] (72 h treatment, Table 6.1). The corresponding values for `O=C(Nc1cccc(C(F)(F)F)c1)Nc1ccc(F)c(NC(=O)c2ccc(F)cc2)c1` [Compound 947] are 15.9 µM and 12.7 µM. The corresponding values for `O=C(Nc1cccc(C(F)(F)F)c1)Nc1ccc(F)c(NC(=O)c2cccc(F)c2F)c1` [Compound 948] are 17.1 µM and 8 µM. The corresponding values for `O=C(Nc1cccc(C(F)(F)F)c1)Nc1cc(C(=O)O)cc(C(F)(F)F)c1` [Compound 949] are 32.9 µM and 2.9 µM. Turning to `O=C(Nc1cccc(C(F)(F)F)c1)Nc1ccc(F)c(NC(=O)Nc2ccccc2F)c1` [Compound 950], the IC50 at 72 h in series [2] (72 h treatment, Table 6.1) was found to be 7.8 µM; in series [1] (72 h treatment, Table 6.1), 3.8 µM. The corresponding values for `O=C(Nc1cccc(C(F)(F)F)c1)Nc1ccc(F)c(NC(=O)c2cc(I)ccc2F)c1` [Compound 951] are 9.8 µM and 4 µM.

In the case of `O=C(Nc1cccc(C(F)(F)F)c1)Nc1ccc(NC(=O)c2cc(I)ccc2F)c(C(F)(F)F)c1` [Compound 952], the IC50 at 72 h stood at 7.8 µM in series [2] (72 h treatment, Table 6.1) and 5.2 µM in series [1] (72 h treatment, Table 6.1).

On to `O=C(Nc1cccc(C(F)(F)F)c1)Nc1cc(NC(=O)Nc2cccc(C(F)(F)F)c2)cc(C(F)(F)F)c1` [Compound 953], for which the IC50 at 72 h in series [2] (72 h treatment, Table 6.1) came to 0.9 µM; in series [1] (72 h treatment, Table 6.1), 1.4 µM. The corresponding values for `O=C(Nc1ccc(C(F)(F)F)cc1)Nc1cc(NC(=O)Nc2ccc(C(F)(F)F)cc2)cc(C(F)(F)F)c1` [Compound 955] are 0.9 µM and 1.5 µM. The corresponding values for `O=C(Nc1ccc(C(F)(F)F)cc1)Nc1ccc(F)c(NC(=O)c2ccc(F)cc2F)c1` [Compound 956] are 9.5 µM and 3.5 µM. The corresponding values for `O=C(Nc1ccc(F)c(NC(=O)c2cc(C(F)(F)F)ccc2F)c1)Nc1ccccc1C(F)(F)F` [Compound 959] are 8.7 µM and 13.5 µM. With `O=C(Nc1ccc(F)c(NC(=O)c2ccc(F)cc2F)c1)Nc1ccccc1C(F)(F)F` [Compound 960], the IC50 at 72 h in series [2] (72 h treatment, Table 6.1) turned out to be 5.7 µM. This counts as single-digit micromolar. As to `O=C(Nc1cccc(C(F)(F)F)c1)Nc1ccc(F)cc1NC(=O)c1ccc(F)cc1F` [Compound 961], the IC50 at 72 h in series [2] (72 h treatment, Table 6.1) worked out at 10.1 µM; in series [1] (72 h treatment, Table 6.1) it was 6.2 µM.

For `O=C(Nc1ccc(Br)cc1)Nc1cc(F)ccc1NC(=O)c1ccc(F)cc1F` [Compound 962], the half-maximal inhibitory concentration (IC50) at 72 h in series [2] (72 h treatment, Table 6.1) is 4.9 µM; in series [1] (72 h treatment, Table 6.1), 5.3 µM. In the case of `O=C(Nc1ccc(Br)cc1)Nc1ccc(F)c(NC(=O)c2cc(C(F)(F)F)ccc2F)c1` [Compound 963], the IC50 at 72 h in series [2] (72 h treatment, Table 6.1) was found to be 4.7 µM; in series [1] (72 h treatment, Table 6.1), 2.4 µM. On to `O=C(Nc1cccc(F)c1)Nc1cc(NC(=O)Nc2cccc(F)c2)cc(C(F)(F)F)c1` [Compound 964], for which the IC50 at 72 h came to 1.8 µM in series [2] (72 h treatment, Table 6.1) and 2.4 µM in series [1] (72 h treatment, Table 6.1). The corresponding values for `O=C(Nc1cccc(F)c1)Nc1cc(F)ccc1NC(=O)c1ccc(F)cc1F` [Compound 965] are 7.7 µM and 4.3 µM. On to `O=C(Nc1cccc(NC(=O)Nc2cccc(C(F)(F)F)c2)c1)Nc1cccc(C(F)(F)F)c1` [Compound 966], for which, in series [2] (72 h treatment, Table 6.1), the IC50 at 72 h was 6.6 µM. In the case of `N#Cc1ccc(NC(=O)NCC(=O)c2ccc(F)cc2)cc1C(F)(F)F` [Compound 982], the midpoint of inhibition in series [1] (72 h, Table 2.4), the IC50 at 72 h, lay at 4.6 µM.
